Reference: patent US20230021946A1, “MONOMERIC FUSION PEPTIDES AND METHOD OF USE THEREOF” (priority 2021, published 2023)
Where two headings read alike, the source gives them in different places. [ ]: non-standard residue; d: D form. Nva = CCC[C@H](N)C(=O)O

Assays:
[1] = Stability in human plasma at 37° C.; assay type: in vitro ADME; conditions: for % of Time 0 / remaining at 1 h, 1000 ng/ml / remaining at 8 h, 1000 ng/ml / remaining at 22 h, 1000 ng/ml: 1000 ng/ml; for % of Time 0: 0.00 hrs, N=3; for remaining at 1 h, 1000 ng/ml / remaining at 8 h, 1000 ng/ml / remaining at 22 h, 1000 ng/ml: N=3, read-out: % of Time 0; for resistance to proteolytic degradation compared with GLP1 peptide: 8 and 22 hours of incubation
Description: The stability and resistance to proteolytic degradation of a number of ALY688-GLP1v fusion peptides were assessed following incubation in human plasma at 37° C.
HPLC (Supelco Discovery BIO Wide Pore C5-3 (2.1×50 mm) with a slow gradient to separate possible degradation products) was used to quantify each peptide. High resolution mass spectrometry (Thermo Q Exactive) Plus was used to collect full scan and MS2 spectra to characterize any possible degradants. The data were evaluated both manually and using Proteome Discoverer data mining software.
In the above tables, Temperature=37° C., Concentration=1000 ng/ml, and N=3/time point.

[2] = Pharmacokinetic profile in mice after single subcutaneous injection; assay type: in vivo; conditions: 10 mg/kg; for AUC(0-t) / Cmax / Tmax: mouse, sc, plasma
Description: GLP1v peptide (with Gly8 substitution) and GLP1v fusion peptides were administered once by subcutaneous injection (concentration=10 mg/kg). Blood was collected into K2EDTA tubes containing a cocktails of protease inhibitors (DPP-4 and Aprotinin). The Bioanalytical Method BAM.0634.01 was used for the quantitation of GLP1v and GLP1v fusion peptides in K2EDTA mouse plasma. It is based on protein precipitation extraction followed by LC-MS/MS instrumental analysis and covers a measurement range from 1.00 to 1000 ng/mL. Samples were analyzed on a Waters Acquity liquid chromatograph interfaced with a Thermo Scientific TSQ Vantage triple quadrupole mass spectrometer with ESI ionization.

[3] = Oral glucose tolerance test after single intravenous injection in mice; assay type: in vivo; conditions: mice fasted 4 hours, intravenous injection 10 minutes before oral glucose load 1 g/kg
Description: The oral glucose load was 1 g glucose/kg body weight. Blood glucose levels were measured with a glucometer at time −30 minutes, 0 (right before the oral glucose load), 15, 30, 60 and 90 minutes after the oral glucose load. Mice were euthanized after the time 90 minutes.

[4] = tested on: P38MAPK (T180/Y182) phosphorylation; conditions: L6 murine skeletal muscle cells, ALY688 alone, previously shown; cited from earlier work

| Compound | % of Time 0 [1] [%] | remaining at 1 h, 1000 ng/ml [1] [%] | remaining at 8 h, 1000 ng/ml [1] [%] | remaining at 22 h, 1000 ng/ml [1] [%] | resistance to proteolytic degradation compared with GLP1 peptide [1] | change in AUC / total exposure compared with GLP1v peptide [2] | AUC(0-t) [2] [ng·h/mL] | Cmax [2] [ng/mL] | Tmax [2] [min] | blood glucose levels after glucose load [3] | change in Tmax compared with GLP1v peptide [2] | remaining at 1 h, 1000 ng/ml ([1]; human plasma (K2EDTA)) [%] | remaining at 8 h, 1000 ng/ml ([1]; human plasma (K2EDTA)) [%] | remaining at 22 h, 1000 ng/ml ([1]; human plasma (K2EDTA)) [%] | P38MAPK (T180/Y182) phosphorylation [4] |
| --- | --- | --- | --- | --- | --- | --- | --- | --- | --- | --- | --- | --- | --- | --- | --- |
| CCC[C@H](NC(=O)[C@@H]1CCCN1C(=O)[C@@H](NC(=O)[C@H](N)CC(N)=O)[C@@H](C)CC)C(=O)N[C@@H](CC(C)C)C(=O)N[C@@H](Cc1ccc(O)cc1)C(=O)N[C@H](CO)C(=O)N[C@@H](Cc1ccccc1)C(=O)N[C@@H](C)C(=O)N[C@H](CO)C(=O)NCC(=O)NCC(=O)NCC(=O)NCCCC[C@H](NC(=O)[C@H](C)NC(=O)[C@H](C)NC(=O)[C@H](CCC(N)=O)NC(=O)CNC(=O)[C@H](CCC(=O)O)NC(=O)[C@H](CC(C)C)NC(=O)[C@H](Cc1ccc(O)cc1)NC(=O)[C@H](CO)NC(=O)[C@H](CO)NC(=O)[C@@H](NC(=O)[C@H](CC(=O)O)NC(=O)[C@H](CO)NC(=O)[C@@H](NC(=O)[C@H](Cc1ccccc1)NC(=O)[C@@H](NC(=O)CNC(=O)[C@H](CCC(=O)O)NC(=O)CNC(=O)[C@@H](N)Cc1c[nH]cn1)[C@@H](C)O)[C@@H](C)O)C(C)C)C(=O)N[C@@H](CCC(=O)O)C(=O)N[C@@H](Cc1ccccc1)C(=O)N[C@H](C(=O)N[C@@H](C)C(=O)N[C@@H](Cc1c[nH]c2ccccc12)C(=O)N[C@@H](CC(C)C)C(=O)N[C@H](C(=O)N[C@@H](CCCCN)C(=O)NCC(=O)N[C@@H](CCCNC(=N)N)C(N)=O)C(C)C)[C@@H](C)CC [ALY688-GLP1v(Lys26)] | 100 | 99 | 74 | 40 | better resistance to proteolytic degradation | two-fold increase | 1020 | 1610 | 10 | greater glucose lowering action | – | – | – | – | – |
| CCC[C@H](NC(=O)[C@@H]1CCCN1C(=O)[C@@H](NC(=O)[C@H](N)CC(N)=O)[C@@H](C)CC)C(=O)N[C@@H](CC(C)C)C(=O)N[C@@H](Cc1ccc(O)cc1)C(=O)N[C@H](CO)C(=O)N[C@@H](Cc1ccccc1)C(=O)N[C@@H](C)C(=O)N[C@H](CO)C(=O)NCC(=O)NCC(=O)NCC(=O)NCCCC[C@H](NC(=O)[C@H](C)NC(=O)[C@H](C)NC(=O)[C@H](CCC(N)=O)NC(=O)CNC(=O)[C@H](CCC(=O)O)NC(=O)[C@H](CC(C)C)NC(=O)[C@H](Cc1ccc(O)cc1)NC(=O)[C@H](CO)NC(=O)[C@H](CO)NC(=O)[C@@H](NC(=O)[C@H](CC(=O)O)NC(=O)[C@H](CO)NC(=O)[C@@H](NC(=O)[C@H](Cc1ccccc1)NC(=O)[C@@H](NC(=O)CNC(=O)[C@H](CCC(=O)O)NC(=O)CNC(=O)[C@@H](N)Cc1c[nH]cn1)[C@@H](C)O)[C@@H](C)O)C(C)C)C(=O)N[C@@H](CCC(=O)O)C(=O)N[C@@H](Cc1ccccc1)C(=O)N[C@H](C(=O)N[C@@H](C)C(=O)N[C@@H](Cc1c[nH]c2ccccc12)C(=O)N[C@@H](CC(C)C)C(=O)N[C@H](C(=O)N[C@@H](CCCCNC(=O)CNC(=O)CNC(=O)CNC(=O)[C@@H](CO)NC(=O)[C@H](C)NC(=O)[C@H](Cc1ccccc1)NC(=O)[C@@H](CO)NC(=O)[C@H](Cc1ccc(O)cc1)NC(=O)[C@H](CC(C)C)NC(=O)[C@H](CCC)NC(=O)[C@@H]1CCCN1C(=O)[C@@H](NC(=O)[C@H](N)CC(N)=O)[C@@H](C)CC)C(=O)NCC(=O)N[C@@H](CCCNC(=N)N)C(N)=O)C(C)C)[C@@H](C)CC [ALY688-GLP1v(Lys26,34)] | – | – | – | – | – | decrease in total exposure | 358 | 372 | 15 | – | further increase in the Tmax | – | – | – | – |
| CCC[C@H](NC(=O)[C@@H]1CCCN1C(=O)[C@@H](NC(=O)[C@H](N)CC(N)=O)[C@@H](C)CC)C(=O)N[C@@H](CC(C)C)C(=O)N[C@@H](Cc1ccc(O)cc1)C(=O)N[C@H](CO)C(=O)N[C@@H](Cc1ccccc1)C(=O)N[C@@H](C)C(=O)N[C@H](CO)C(=O)NCC(=O)NCC(=O)NCC(=O)NCCCC[C@H](NC(=O)[C@@H](NC(=O)[C@H](CC(C)C)NC(=O)[C@H](Cc1c[nH]c2ccccc12)NC(=O)[C@H](C)NC(=O)[C@@H](NC(=O)[C@H](Cc1ccccc1)NC(=O)[C@H](CCC(=O)O)NC(=O)[C@H](CCCCN)NC(=O)[C@H](C)NC(=O)[C@H](C)NC(=O)[C@H](CCC(N)=O)NC(=O)CNC(=O)[C@H](CCC(=O)O)NC(=O)[C@H](CC(C)C)NC(=O)[C@H](Cc1ccc(O)cc1)NC(=O)[C@H](CO)NC(=O)[C@H](CO)NC(=O)[C@@H](NC(=O)[C@H](CC(=O)O)NC(=O)[C@H](CO)NC(=O)[C@@H](NC(=O)[C@H](Cc1ccccc1)NC(=O)[C@@H](NC(=O)CNC(=O)[C@H](CCC(=O)O)NC(=O)CNC(=O)[C@@H](N)Cc1c[nH]cn1)[C@@H](C)O)[C@@H](C)O)C(C)C)[C@@H](C)CC)C(C)C)C(=O)NCC(=O)N[C@@H](CCCNC(=N)N)C(N)=O [ALY688-GLP1v(Lys34)] | 100 | 95 | 74 | 49 | better resistance to proteolytic degradation | decrease in total exposure | 177 | 267 | 15 | greater glucose lowering action | further increase in the Tmax | – | – | – | – |
| CC[C@H](C)[C@H](NC(=O)[C@H](Cc1ccccc1)NC(=O)[C@H](CCC(=O)O)NC(=O)[C@H](CCCCN)NC(=O)[C@H](C)NC(=O)[C@H](C)NC(=O)[C@H](CCC(N)=O)NC(=O)CNC(=O)[C@H](CCC(=O)O)NC(=O)[C@H](CC(C)C)NC(=O)[C@H](Cc1ccc(O)cc1)NC(=O)[C@H](CO)NC(=O)[C@H](CO)NC(=O)[C@@H](NC(=O)[C@H](CC(=O)O)NC(=O)[C@H](CO)NC(=O)[C@@H](NC(=O)[C@H](Cc1ccccc1)NC(=O)[C@@H](NC(=O)CNC(=O)[C@H](CCC(=O)O)NC(=O)CNC(=O)[C@@H](N)Cc1cnc[nH]1)[C@@H](C)O)[C@@H](C)O)C(C)C)C(=O)N[C@@H](C)C(=O)N[C@@H](Cc1c[nH]c2ccccc12)C(=O)N[C@@H](CC(C)C)C(=O)N[C@H](C(=O)N[C@@H](CCCCN)C(=O)NCC(=O)N[C@@H](CCCNC(=N)N)C(N)=O)C(C)C [GLP1v with Gly8 substitution, reference compound] | 100 | – | – | – | – | – | 525 | 781 | 5 | expected glucose-lowering activity | – | 85 | 41 | 24 | – |
| H-DAsn-Ile-Pro-Nva-Leu-Tyr-DSer-Phe-Ala-DSer-NH2 (H-[dN]IP[Nva]LY[dS]FA[dS]-NH2; SMILES CCC[C@H](NC(=O)[C@@H]1CCCN1C(=O)[C@@H](NC(=O)[C@H](N)CC(N)=O)[C@@H](C)CC)C(=O)N[C@@H](CC(C)C)C(=O)N[C@@H](Cc1ccc(O)cc1)C(=O)N[C@H](CO)C(=O)N[C@@H](Cc1ccccc1)C(=O)N[C@@H](C)C(=O)N[C@H](CO)C(N)=O) [ALY688, 10 amino acid chemically synthesized adiponectin receptor agonist peptide, reference compound] | – | – | – | – | – | – | – | – | – | no glucose effect | – | – | – | – | increased |
